ChEMBL document CHEMBL3351363 (J Med Chem, 2014)

Tests used:
[1] = molecular target: Muscarinic acetylcholine receptor M3 (Homo sapiens, UniProt P20309); experiment: Displacement of [3H]NMS from human M3 receptor expressed in CHO cells by microplate scintillation counting based radioligand binding assay; format: cell-based
[2] = molecular target: T1, Muscarinic acetylcholine receptor M4 (Homo sapiens, UniProt P08173); experiment: Displacement of [3H]NMS from human M4 receptor expressed in CHO cells by microplate scintillation counting based radioligand binding assay; format: cell-based
T1 sequence (P08173 whole entry): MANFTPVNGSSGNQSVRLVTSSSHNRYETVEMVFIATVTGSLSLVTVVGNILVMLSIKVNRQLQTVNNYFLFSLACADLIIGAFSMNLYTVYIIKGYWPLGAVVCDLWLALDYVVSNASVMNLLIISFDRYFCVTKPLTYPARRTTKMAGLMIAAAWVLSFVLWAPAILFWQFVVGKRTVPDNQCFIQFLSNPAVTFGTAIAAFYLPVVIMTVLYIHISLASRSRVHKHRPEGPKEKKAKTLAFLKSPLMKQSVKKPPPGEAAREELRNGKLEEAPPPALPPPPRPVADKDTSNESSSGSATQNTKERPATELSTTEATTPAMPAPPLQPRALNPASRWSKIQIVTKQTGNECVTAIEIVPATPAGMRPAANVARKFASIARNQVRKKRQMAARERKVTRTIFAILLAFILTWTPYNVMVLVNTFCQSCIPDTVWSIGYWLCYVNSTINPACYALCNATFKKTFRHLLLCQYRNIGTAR

[3] = molecular target: T2, Muscarinic acetylcholine receptor M5 (Homo sapiens, UniProt P08912); experiment: Displacement of [3H]NMS from human M5 receptor expressed in CHO cells by microplate scintillation counting based radioligand binding assay; format: cell-based
T2 sequence (P08912 whole entry): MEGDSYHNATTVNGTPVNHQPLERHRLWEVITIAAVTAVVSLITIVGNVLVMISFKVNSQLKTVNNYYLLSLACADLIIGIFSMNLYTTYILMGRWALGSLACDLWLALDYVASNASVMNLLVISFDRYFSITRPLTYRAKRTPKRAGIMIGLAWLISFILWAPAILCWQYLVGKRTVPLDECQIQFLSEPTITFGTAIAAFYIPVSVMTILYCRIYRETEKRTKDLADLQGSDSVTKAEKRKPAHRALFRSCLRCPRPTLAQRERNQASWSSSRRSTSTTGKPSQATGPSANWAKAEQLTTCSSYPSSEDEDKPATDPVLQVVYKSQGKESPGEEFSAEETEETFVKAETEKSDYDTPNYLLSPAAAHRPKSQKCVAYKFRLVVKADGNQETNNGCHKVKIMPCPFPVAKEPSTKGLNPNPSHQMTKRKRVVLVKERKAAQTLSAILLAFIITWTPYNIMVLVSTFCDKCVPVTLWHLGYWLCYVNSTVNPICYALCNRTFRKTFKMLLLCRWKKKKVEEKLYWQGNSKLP

[4] = molecular target: T3, Muscarinic acetylcholine receptor M1 (Homo sapiens) (UniProt P11229); experiment: Agonist activity at human M1 receptor expressed in HEK293T cells by BRET based Gq protein engagement assay relative carbachol; format: cell-based; details: HEK-293T
T3 sequence (whole entry): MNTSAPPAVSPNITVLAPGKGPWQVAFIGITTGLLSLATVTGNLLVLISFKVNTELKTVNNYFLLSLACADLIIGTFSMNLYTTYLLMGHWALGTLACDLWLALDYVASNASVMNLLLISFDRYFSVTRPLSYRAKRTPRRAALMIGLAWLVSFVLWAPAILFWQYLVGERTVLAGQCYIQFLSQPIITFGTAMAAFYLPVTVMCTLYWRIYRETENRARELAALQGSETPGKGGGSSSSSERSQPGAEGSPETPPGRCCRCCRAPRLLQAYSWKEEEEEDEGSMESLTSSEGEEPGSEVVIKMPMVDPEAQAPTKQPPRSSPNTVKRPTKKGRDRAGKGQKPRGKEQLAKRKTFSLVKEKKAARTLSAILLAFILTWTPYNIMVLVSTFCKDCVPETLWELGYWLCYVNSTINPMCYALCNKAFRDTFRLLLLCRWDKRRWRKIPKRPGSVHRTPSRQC

[5] = molecular target: T4, Muscarinic acetylcholine receptor M1 (Homo sapiens, UniProt P11229); experiment: Positive modulatory activity at human M1 receptor expressed in HEK293T cells assessed as effect on carbachol-induced response by BRET based Gq protein engagement assay; format: cell-based, HEK-293T
T4 sequence (P11229 whole entry): T3 sequence (whole entry)

[6] = molecular target: T4, Muscarinic acetylcholine receptor M1; experiment: Agonist activity at human M1 receptor expressed in HEK293T cells by BRET based Gq protein activation assay; format: cell-based, HEK-293T
[7] = molecular target: T3, Muscarinic acetylcholine receptor M1 (Homo sapiens); experiment: Agonist activity at human M1 receptor expressed in HEK293T cells by BRET based Gq protein activation assay relative to carbachol; format: cell-based; details: HEK-293T
[8] = molecular target: T4, Muscarinic acetylcholine receptor M1; experiment: Positive modulatory activity at human M1 receptor expressed in HEK293T cells assessed as effect on carbachol-induced response by BRET based Gq protein activation assay; format: cell-based, HEK-293T
[9] = molecular target: T4, Muscarinic acetylcholine receptor M1; experiment: Agonist activity at human M1 receptor expressed in HEK293T cells by BRET based beta-arrestin engagement assay
[10] = molecular target: T3, Muscarinic acetylcholine receptor M1 (Homo sapiens); experiment: Agonist activity at human M1 receptor expressed in HEK293T cells by BRET based beta-arrestin engagement assay relative to carbachol; format: cell-based; details: HEK-293T
[11] = molecular target: T1, Muscarinic acetylcholine receptor M4; experiment: Antagonist activity at human M4 receptor expressed in HEK293T cells assessed as inhibition of carbachol-induced response by BRET based Gq protein engagement assay; format: cell-based, HEK-293T
[12] = molecular target: T5, Muscarinic acetylcholine receptor M4 (Homo sapiens) (UniProt P08173); experiment: Antagonist activity at human M4 receptor expressed in HEK293T cells assessed as inhibition of carbachol-induced response by BRET based Gq protein engagement assay relative to untreated control; format: cell-based; details: HEK-293T
T5 sequence (whole entry): T1 sequence (P08173 whole entry)

[13] = molecular target: T1, Muscarinic acetylcholine receptor M4; experiment: Antagonist activity at human M4 receptor expressed in HEK293T cells assessed as inhibition of xanomeline-induced response by BRET based Gq protein engagement assay; format: cell-based, HEK-293T
[14] = molecular target: T1, Muscarinic acetylcholine receptor M4; experiment: Agonist activity at human M4 receptor expressed in HEK293T cells by BRET based Gq protein activation assay
[15] = molecular target: T5, Muscarinic acetylcholine receptor M4 (Homo sapiens); experiment: Antagonist activity at human M4 receptor expressed in HEK293T cells assessed as inhibition of carbachol-induced response by beta-arrestin engagement assay relative to untreated control; format: cell-based; details: HEK-293T
[16] = molecular target: T1, Muscarinic acetylcholine receptor M4; experiment: Antagonist activity at human M4 receptor expressed in HEK293T cells assessed as inhibition of xanomeline-induced response by beta-arrestin engagement assay; format: cell-based, HEK-293T
[17] = molecular target: T4, Muscarinic acetylcholine receptor M1
[18] = molecular target: T4, Muscarinic acetylcholine receptor M1; remark: listed apart in the source
[19] = molecular target: T1, Muscarinic acetylcholine receptor M4
[20] = molecular target: T5, Muscarinic acetylcholine receptor M4 (Homo sapiens); experiment: Agonist activity at human M4 receptor expressed in HEK293T cells by BRET based Gi protein activation assay relative to carbachol; details: HEK-293T
[21] = molecular target: T5, Muscarinic acetylcholine receptor M4 (Homo sapiens); experiment: Antagonist activity at human M4 receptor expressed in HEK293T cells assessed as inhibition of carbachol-induced response by BRET based Gi protein activation assay relative to untreated control; details: HEK-293T

Muscarinic acetylcholine receptor M3, sequence (P20309 whole entry): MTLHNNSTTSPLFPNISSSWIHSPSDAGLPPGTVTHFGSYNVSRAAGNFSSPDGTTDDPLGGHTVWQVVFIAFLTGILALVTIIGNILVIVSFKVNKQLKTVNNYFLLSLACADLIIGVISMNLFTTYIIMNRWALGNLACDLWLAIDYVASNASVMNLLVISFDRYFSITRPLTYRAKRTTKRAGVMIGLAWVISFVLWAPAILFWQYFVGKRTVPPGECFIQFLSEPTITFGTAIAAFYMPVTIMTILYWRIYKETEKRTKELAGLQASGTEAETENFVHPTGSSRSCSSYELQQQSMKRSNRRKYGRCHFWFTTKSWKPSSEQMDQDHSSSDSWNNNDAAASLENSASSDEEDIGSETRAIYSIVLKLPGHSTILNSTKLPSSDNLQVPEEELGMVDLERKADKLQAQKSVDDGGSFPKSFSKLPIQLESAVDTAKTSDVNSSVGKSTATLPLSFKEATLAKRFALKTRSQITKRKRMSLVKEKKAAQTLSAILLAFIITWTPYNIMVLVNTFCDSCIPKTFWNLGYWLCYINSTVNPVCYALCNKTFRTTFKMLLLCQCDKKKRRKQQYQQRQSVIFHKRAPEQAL

Ki [1]: 1200 nM | Ki [2]: 209 nM | Ki [3]: 5370 nM | Emax [4]: 81% | EC50 [5]: 34.7 nM | EC50 [6]: 102 nM | Emax [7]: 57% | EC50 [8]: 191 nM | EC50 [9]: 832 nM | Emax [10]: 32% | IC50 [11]: 2240 nM | Imax [12]: 86% | IC50 [13]: 120000 nM | EC50 [14]: 275 nM | Imax [15]: 16% | IC50 [16]: 7590 nM | EC50 [17]: 120 nM | IC50 [18]: 1580 nM | IC50 [19]: 47900 nM | Emax [20]: 46% | Imax [21]: 55%
SMILES: CCCCC1CCN(CCCN2C(=O)CCc3ccccc32)CC1
